Numbered stars: 1 amine (or outer) side, 2 acyl side, 3 side chain; on linkers, the order of the positions; unused ones are H or OH. Bridge positions count the residues as written; N and C are the ends. Square brackets hold non-standard residues; d marks the D form. Peptide text beside a SMILES is read from it. I, II: the chains in the order shown. Actinocin(9to1) = Cc1c2oc3c(C)ccc(C(=O)[*:1])c3nc-2c(C(=O)[*:2])c(N)c1=O; NMeV = CN[CH](C(=O)O)C(C)C; Sar = CNCC(=O)O
Tests used:
poly[d(G-C)]2 = test: DNA-ethidium fluorescence quenching; type: binding; conditions: Q = equivalent concentration required to reduce fluorescence by 50%; 2.0 µM EtBr, 20 µM DNAp, 2 mM NaOAc buffer, 9.3 mM NaCl, pH 5.0
Procedure: (§1) DNA-Ethidium Fluorescence Quenching. Working solutions containing 20 µM poly[d(AT)]2 (ε260 = 13,100 M(bp)^-1 cm^-1), poly[d(G-C)]2 (ε260 = 16,800 M(bp)^-1 cm^-1) and CT-DNAp (ε260 = 12,824 M(bp)^-1 cm^-1) along with 2.0 µM Et in NaOAc buffer (2 mM NaOAc, 9.3 mM NaCl, 0.1 mM Na2EDTA, pH = 5.0) were prepared. Subsequent experimental steps are identical to the displacement experiment with the exception that a fluorescence reading of 200 arbitrary units with measurements being recorded over a 20-s interval was used. From a plot of the fluorescence vs added drug concentration, the Q values is given by the concentration required to effect 50% removal of the initial fluorescence.

poly[d(A-T)]2 = test: DNA-ethidium fluorescence quenching; type: binding; conditions: Q = equivalent concentration required to reduce fluorescence by 50%; 2.0 µM EtBr, 20 µM DNAp, 2 mM NaOAc buffer, 9.3 mM NaCl, pH 5.0
Procedure: as §1

SK-OV-3 = test: MTT cytotoxicity assay, complexes 1-6; type: cell-based, Human; conditions: SK-OV-3 ovarian cancer, 24 hr exposure, mean of three independent experiments +/- standard error
Procedure: (§2) MTT Assay. This method is based on the reduction of the tetrazolium salt, methylthiazolyldiphenyl-tetrazolium bromide (MTT) into a crystalline blue formazan product by the cellular oxidoreductases of viable cells. The resultant formazan crystal formation is proportional to the number of viable cells. Cells were seeded at 4x 10^5 cells/ml in 96-well plates and incubated at 37°C in 5% CO2 for 24 hours. Cells were treated with a four log range of concentration of the test compounds in triplicate from 0.1 to 500 µM or with a solvent control (0.5% DMSO) in complete medium. Following 24 h incubation, cells were incubated with 20 µl of MTT (5 mg/ml) in 0.1 M PBS, pH 7.4 at 37 °C in a humid atmosphere with 5% CO2 for 4 h. Media was then gently aspirated from test cultures and 100 µL of dimethyl sulphoxide (DMSO) was added to all wells. The plates were then shaken for 2 min and the absorbance was read at 550 nm in a Varioscan plate reader. The IC50 was defined as the concentration of test compound required to reduce the absorbance of the MTT-formazan crystals by 50%, indicating 50% cell deactivation.
Cu(II) bis-phen complexes 4-6 display rapid, low micomolar toxicities against all tumor lines. […] It should be noted that 6 is dinuclear and so contains two active copper units, which may explain this heightened potency.

DU145 = test: MTT cytotoxicity assay, complexes 1-6; type: cell-based, Human; conditions: 24 hr exposure, mean of three independent experiments +/- standard error
Procedure: (§3) Human colon cancer cell line, HT29 (passage 17 to 30, ATCC, USA), was grown in McCoys's 5a medium supplemented with 2mM L-glutamine and fetal bovine serum (FBS) 10% and containing 100U/ ml penicillin and 100µg / ml streptomycin at 37°C in a humidified atmosphere with 5% CO2 Human Breast Cancer cell line, MCF-7 (passage 16 to 26, ATCC, USA) was grown in Eagle's minimum essential medium containing 2mM L-glutamine, 100U/ ml penicillin,100µg/ ml streptomycin, FBS (10%), 1mM sodium pyruvate and 1% (v/v) non essential amino acids at 37°C in a humidified atmosphere with 5% CO2 Human prostate cancer cell line, DU145 (passage 12 to 29, ATCC, USA) was grown in Eagle's minimum essential medium containing 2mM L-glutamine, 100U/ ml penicillin, 100µg/ ml streptomycin, FBS (10%), 1mM sodium pyruvate and 1% (v/v) non essential amino acids at 37°C in a humidified atmosphere with 5% CO2. All drugs were tested by MTT assay following 24-hour exposure of cells to each compound. Each value represents the mean IC50 of three independent experiments +/- standard error.
as §2

HT29 [1] = test: MTT cytotoxicity assay, complexes 1-6; type: cell-based, Human; conditions: 24 hr exposure, mean of three independent experiments +/- standard error
Procedure: as §3, §2

MCF-7 = test: MTT cytotoxicity assay, complexes 1-6; type: cell-based, Human; conditions: 24 hr exposure, mean of three independent experiments +/- standard error
Procedure: as §3, §2

CT-DNA = test: Competitive ethidium bromide displacement; type: binding, calf; conditions: 1.2 µM EtBr, 1 µM CT-DNAp, pH 7.0; for Kapp (apparent binding constant): Kapp = Ke x 1.26/C50 where Ke = 9.5 x 10^6 M(bp)^-1; for IC50: final volume 2 mL, 10 mM TES, 0.1 mM Na2EDTA, read-out: C50 = concentration required to reduce fluorescence by 50%
Procedure: Competitive Ethidium Displacement. […] Complexes 4-6, actinomycin D, pentamidine isethionate were prepared at 2.0 mM in DMSO. Two millilitres of DNA-Et solution were placed in a 10-mm quartz cuvet (3 mL) and positioned in a temperature controlled (20°C) spectrofluorometer (Perkin Elmer LS55B Luminescence Spectrometer). Excitation and emission wavelengths were set to 546 and 595 nm, respectively. After thermal equilibrium was established the emission and excitation slits were modified to give a fluorescence reading of 50 arbitrary units with measurements being recorded over a 20-s interval. An aliquot of complex or drug solution was taken (0.5 - 10 µL), was added to the cuvette and after equilibration the fluorescence reading was recorded. Repeated aliquots were added until the fluorescence was 20-40% of the initial control. Triplicate titrations were preformed and the apparent binding constants were calculated using Kapp = Ke x 1.26/C50 where Ke = 9.5 x 10^6 M(bp)^-1.

[2] = Solubility in organic solvents; conditions: DMSO/DMF
SW620 = test: MTT cytotoxicity assay, complex 7; type: cell-based; conditions: SW620 (Dukes' C) colon cancer line, 24 hr
Procedure: (§4) For cytotoxicity evaluation HT29, SW480 and SW620 cell lines were employed; all the cell lines were grown in RPMI 1640 media (Fischer). All media were supplemented with 10% foetal bovine serum (FBS) and 45 IU/ml penicillin and 45 µg/ml streptomycin and cells were maintained at 37 °C in a 5% CO2 humidified incubator.
(§5) For sterilisation samples were filtered with a 0.2 micron cellulose acetate filter. For cytotoxicological evaluation all samples were prepared fresh on the day of exposure. A stock concentration of test compound was prepared in the exposure media (10% DMEM F-12) necessary for the cell line under test. This sample was vortexed to ensure a uniform dispersion of the compound under test.
(§6) For cytotoxicity assays cells were seeded in 96-well microplates (Nunc, Denmark) at a density of 1 x 10^5 cells/ml for the 24 hr test, 5 x10^4 cells/ml for the 48 hr test and 3 x 10^4 cells/ml for the 96 hr test. […] After 24 h of cell attachment, plates were washed with 100 µl/well phosphate buffered saline (PBS) and the cells were treated with increasing concentrations of each compound for 24 h. Six replicate wells were used for each control and test concentration per microplate. Following the desired time of compound exposure, control medium or test exposures were removed, the cells were rinsed with PBS and 100 µl of fresh medium (without FBS or supplements) was added to each well. 10 µl of MTT (5 mg/ml) prepared in PBS was then added to each well and the plates were incubated for 3 h at 37°C in a 5% CO2 humidified incubator. After this incubation period the medium was discarded, the cells were washed with 100 µl of PBS and 100 µl of DMSO was added to each well to extract the dye. The plate was shaken at 240 rpm for 10 min and the absorbance was measured at 570 nm.
(§7) At least three independent experiments were conducted in triplicate for each cell line and toxicity endpoint. […] Control values were set as 100%. Differences between samples and the control were evaluated using the statistical analysis package SPSS 14.0. Statistically significant differences were set at p≤0.05.

SW480 = test: MTT cytotoxicity assay, complex 7; type: cell-based; conditions: SW480 (Dukes' B) colon cancer line, 24 hr
Procedure: as §4, §5, §6, §7

HT29 [3] = test: MTT cytotoxicity assay, complex 7; type: cell-based, Human; conditions: HT29 colon cancer line, 24 hr
Procedure: as §4, §5
For cytotoxicity assays cells were seeded in 96-well microplates (Nunc, Denmark) at a density of 1 x 10^5 cells/ml for the 24 hr test, 5 x10^4 cells/ml for the 48 hr test and 3 x 10^4 cells/ml for the 96 hr test. […] After 24 h of cell attachment, plates were washed with 100 µl/well phosphate buffered saline (PBS) and the cells were treated with increasing concentrations of each compound for 24 h. […] The plate was shaken at 240 rpm for 10 min and the absorbance was measured at 570 nm.
At least three independent experiments were conducted in triplicate for each cell line and toxicity endpoint. […] Differences between samples and the control were evaluated using the statistical analysis package SPSS 14.0. […]

[4] = Homo sapiens, DU-145, DU145 prostate cancer
[5] = Homo sapiens, HT-29, HT29 colon cancer
[6] = Homo sapiens, MCF7, MCF-7 breast cancer

Row | Molecule | IC50 (poly[d(G-C)]2) | IC50 (poly[d(A-T)]2) | IC50 (SK-OV-3) | IC50 (DU145; DU145 prostate cancer) | IC50 (HT29 [1]; HT29 colon cancer) | IC50 (MCF-7; MCF-7 breast cancer) | Kapp (apparent binding constant) (CT-DNA) | IC50 (CT-DNA) | IC50 (SK-OV-3; Homo sapiens) | IC50 (DU145; [4]) | IC50 (HT29 [1]; [5]) | IC50 (MCF-7; [6]) | also measured
1 | O.O.O.O.O.O=C([O-])c1cccc(C(=O)[O-])c1.[Cu+2].c1cnc2c(c1)ccc1cccnc12.c1cnc2c(c1)ccc1cccnc12 [Complex 5, [Cu(isoph)(phen)2]5H2O] | 37.3 µM | 20.9 µM | 6.6 ± 0.4 µM | 10.6 ± 2.2 µM | 5.8 ± 0.2 µM | 41.2 ± 1.4 µM | 1.20x10^5 M(bp)^-1 | 99.8 µM | – | – | – | – | Solubility [2]: DMSO/DMF
2 | O=C1c2c(O)ccc(O)c2C(=O)c2c(NCCNCCO)ccc(NCCNCCO)c21 [mitoxantrone, reference compound] | – | – | – | – | – | – | – | – | 54.5 ± 2.6 µM | 27.3 ± 5.6 µM | 8 ± 0.6 µM | 7.5 ± 0.2 µM | –
3 | O=C(O)c1ccccc1C(=O)O [phH2, phthalic acid, reference compound] | – | – | – | – | – | – | – | – | > 500 µM | > 500 µM | > 500 µM | > 500 µM | –
4 | c1cnc2c(c1)ccc1cccnc12 [phen, 1,10-phenanthroline] | – | – | – | – | – | – | – | – | 286 ± 28.5 µM | 272 ± 8 µM | 377 ± 9.2 µM | 338 ± 64.7 µM | Activity LD50 (SW620): >100 µM; Activity LD50 (SW480): >100 µM; Activity LD50 (HT29 [3]): >100 µM
5 | N=C(N)c1ccc(OCCCCCOc2ccc(C(=N)N)cc2)cc1 [pentamidine, reference compound] | 203 µM | 44.9 µM | – | – | – | – | 6.07x10^5 M(bp)^-1 | 19.7 µM | – | – | – | – | –
6 | O=C(O)c1ccc(C(=O)O)cc1 [terphH2, terephthalic acid, reference compound] | – | – | – | – | – | – | – | – | > 500 µM | > 500 µM | > 500 µM | > 500 µM | –
7 | [Cu(ph)(phen)2]8H2O [Complex 4] | 69.8 µM | 26.2 µM | 6.7 ± 0.4 µM | 11.6 ± 4.5 µM | 6 ± 0.4 µM | 44.9 ± 7 µM | 1.21x10^5 M(bp)^-1 | 99.1 µM | – | – | – | – | Solubility [2]: forms only suspensions in DMSO/DMF
8 | O=C(O)c1cccc(C(=O)O)c1 [isophH2, isophthalic acid, reference compound] | – | – | – | – | – | – | – | – | > 500 µM | > 500 µM | > 500 µM | > 500 µM | –
9 | {[Cu(isoph)(H2O)3]2H2O}n [Complex 2] | – | – | 436 ± 29.4 µM | 422 ± 22.4 µM | > 500 µM | 401 ± 54.1 µM | – | – | – | – | – | – | Solubility [2]: DMSO/DMF
10 | N.N.[Cl][Pt][Cl] [Cisplatin, reference compound] | – | – | > 500 µM | > 500 µM | 349 ± 80.6 µM | 90.8 ± 3.5 µM | – | – | – | – | – | – | –
11 | Cc1c2oc3c(C)ccc(C(=O)NC4C(=O)NC(C(C)C)C(=O)N5CCCC5C(=O)N(C)CC(=O)N(C)C(C(C)C)C(=O)OC4C)c3nc-2c(C(=O)NC2C(=O)NC(C(C)C)C(=O)N3CCCC3C(=O)N(C)CC(=O)N(C)C(C(C)C)C(=O)OC2C)c(N)c1=O (stereo not drawn) [actinomycin D, reference compound] (I: TVP[Sar][NMeV] / II: TVP[Sar][NMeV]; ester I:1-I:C, II:1-II:C; linker I:N-II:N via Actinocin(9to1); configuration not given here) | 4.25 µM | 314 µM | – | – | – | – | 9.69 x 10^5 M(bp)^-1 | 12.3 µM | – | – | – | – | –
12 | {[Cu(tereph)(H2O)3]2H2O}n [Complex 3] | – | – | > 500 µM | > 500 µM | > 500 µM | 414 ± 26 µM | – | – | – | – | – | – | –
13 | {[Cu(ph)(H2O)]}n [Complex 1] | – | – | > 500 µM | > 500 µM | > 500 µM | > 500 µM | – | – | – | – | – | – | –

Source: patent EP2407164A1, “Copper II complexes of phenanthroline and their use in cancer treatment” (Dublin Institute of Technology Intellectual Property Ltd, priority 2010, dated 2012)
